ChEMBL document CHEMBL1141030, “Synthesis and biological evaluation of phloridzin analogs as human concentrative nucleoside transporter 3 (hCNT3) inhibitors” (Bioorg Med Chem Lett, 2009)
pIC50, pKi: −log10 of the molar value.

What follows are compounds tested against T1, Sodium/nucleoside cotransporter 1 (Homo sapiens, UniProt O00337) (assay: Inhibition of human CNT1).
T1 sequence (O00337 whole entry): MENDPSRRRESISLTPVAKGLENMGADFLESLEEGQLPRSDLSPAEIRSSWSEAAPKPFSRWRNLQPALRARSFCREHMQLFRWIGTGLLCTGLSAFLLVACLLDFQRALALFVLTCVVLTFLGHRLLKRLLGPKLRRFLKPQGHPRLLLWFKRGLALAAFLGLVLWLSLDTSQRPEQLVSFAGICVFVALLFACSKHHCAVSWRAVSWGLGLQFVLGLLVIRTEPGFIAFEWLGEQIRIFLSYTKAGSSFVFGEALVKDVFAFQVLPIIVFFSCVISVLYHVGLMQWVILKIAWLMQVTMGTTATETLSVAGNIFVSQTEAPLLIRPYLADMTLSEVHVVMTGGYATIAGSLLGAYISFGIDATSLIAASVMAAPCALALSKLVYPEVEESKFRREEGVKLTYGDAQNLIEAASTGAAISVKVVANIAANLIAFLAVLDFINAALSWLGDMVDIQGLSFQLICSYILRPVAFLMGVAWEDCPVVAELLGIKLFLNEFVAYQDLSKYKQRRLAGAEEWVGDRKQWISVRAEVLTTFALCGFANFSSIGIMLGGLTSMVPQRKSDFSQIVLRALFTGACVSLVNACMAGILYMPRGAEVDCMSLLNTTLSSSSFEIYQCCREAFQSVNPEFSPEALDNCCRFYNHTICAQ

Q: With `O=C(CCc1ccc(O)cc1)c1c(O)cc(O)cc1O[C@@H]1O[C@H](CO)[C@@H](O)[C@H](O)[C@H]1O` [PHLORIZIN] as the compound, how does the pIC50 read?
A: 3.60

The compounds below were run against T2, Equilibrative nucleoside transporter 1 (Homo sapiens, UniProt Q99808) (assay: Binding affinity to human ENT1 assessed as [3H]uridine uptake by flow cytometry).
T2 sequence (Q99808 whole entry): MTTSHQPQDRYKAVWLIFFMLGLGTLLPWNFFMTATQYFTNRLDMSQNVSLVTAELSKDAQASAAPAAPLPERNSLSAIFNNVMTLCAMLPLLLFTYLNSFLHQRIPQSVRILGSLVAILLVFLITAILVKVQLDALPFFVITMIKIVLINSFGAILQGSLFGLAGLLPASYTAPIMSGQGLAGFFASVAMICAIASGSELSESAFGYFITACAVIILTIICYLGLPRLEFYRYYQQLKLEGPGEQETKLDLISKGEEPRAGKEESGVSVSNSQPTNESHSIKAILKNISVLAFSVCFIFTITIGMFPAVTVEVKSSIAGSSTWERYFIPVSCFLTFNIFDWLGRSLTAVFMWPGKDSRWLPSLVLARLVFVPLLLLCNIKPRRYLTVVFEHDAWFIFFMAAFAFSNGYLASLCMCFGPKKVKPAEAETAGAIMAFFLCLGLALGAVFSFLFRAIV

Q: `O=C(CCc1ccc(O)cc1)c1c(O)cc(O)cc1O[C@@H]1O[C@H](CO)[C@@H](O)[C@H](O)[C@H]1O` [PHLORIZIN] was tested. Which pKi did it give?
A: < 3.00

Q: `O=C(CCc1ccc(O)cc1)c1c(O)cc(O)cc1O[C@@H]1O[C@H](CO)[C@@H](O)[C@H]1O` was tested. Which pKi did it give?
A: < 3.00

The compounds below were run against T3, Sodium/nucleoside cotransporter 2 (Homo sapiens, UniProt O43868) (assay: Inhibition of human CNT2).
T3 sequence (O43868 whole entry): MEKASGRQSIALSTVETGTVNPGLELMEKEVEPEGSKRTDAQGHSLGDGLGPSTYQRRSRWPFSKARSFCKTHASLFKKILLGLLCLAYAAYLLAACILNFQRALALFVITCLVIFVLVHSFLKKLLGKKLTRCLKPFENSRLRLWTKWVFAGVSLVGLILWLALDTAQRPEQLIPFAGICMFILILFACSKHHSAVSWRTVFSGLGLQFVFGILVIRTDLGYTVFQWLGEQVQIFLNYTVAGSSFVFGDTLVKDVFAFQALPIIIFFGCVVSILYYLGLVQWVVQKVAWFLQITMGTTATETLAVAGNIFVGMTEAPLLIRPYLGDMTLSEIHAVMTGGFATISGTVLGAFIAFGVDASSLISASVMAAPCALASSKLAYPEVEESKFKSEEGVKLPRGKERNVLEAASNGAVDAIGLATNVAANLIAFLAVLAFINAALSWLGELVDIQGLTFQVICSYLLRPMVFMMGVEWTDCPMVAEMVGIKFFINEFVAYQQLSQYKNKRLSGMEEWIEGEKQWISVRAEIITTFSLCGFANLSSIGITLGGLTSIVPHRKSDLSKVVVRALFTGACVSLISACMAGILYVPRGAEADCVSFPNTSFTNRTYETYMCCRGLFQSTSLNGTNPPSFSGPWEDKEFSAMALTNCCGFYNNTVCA

Q: How did the pIC50 turn out when `O=C(CCc1ccc(O)cc1)c1c(O)cc(O)cc1O[C@@H]1O[C@H](CO)[C@@H](O)[C@H](O)[C@H]1O` [PHLORIZIN] was run?
A: 4.00

The compounds below were run against T4, Solute carrier family 28 member 3 (Homo sapiens, UniProt Q9HAS3) (assay: Binding affinity to human recombinant CNT3 expressed in pig PK15NTD cells assessed as [3H]uridine uptake by beta-scintillation counter).
T4 sequence (Q9HAS3 whole entry): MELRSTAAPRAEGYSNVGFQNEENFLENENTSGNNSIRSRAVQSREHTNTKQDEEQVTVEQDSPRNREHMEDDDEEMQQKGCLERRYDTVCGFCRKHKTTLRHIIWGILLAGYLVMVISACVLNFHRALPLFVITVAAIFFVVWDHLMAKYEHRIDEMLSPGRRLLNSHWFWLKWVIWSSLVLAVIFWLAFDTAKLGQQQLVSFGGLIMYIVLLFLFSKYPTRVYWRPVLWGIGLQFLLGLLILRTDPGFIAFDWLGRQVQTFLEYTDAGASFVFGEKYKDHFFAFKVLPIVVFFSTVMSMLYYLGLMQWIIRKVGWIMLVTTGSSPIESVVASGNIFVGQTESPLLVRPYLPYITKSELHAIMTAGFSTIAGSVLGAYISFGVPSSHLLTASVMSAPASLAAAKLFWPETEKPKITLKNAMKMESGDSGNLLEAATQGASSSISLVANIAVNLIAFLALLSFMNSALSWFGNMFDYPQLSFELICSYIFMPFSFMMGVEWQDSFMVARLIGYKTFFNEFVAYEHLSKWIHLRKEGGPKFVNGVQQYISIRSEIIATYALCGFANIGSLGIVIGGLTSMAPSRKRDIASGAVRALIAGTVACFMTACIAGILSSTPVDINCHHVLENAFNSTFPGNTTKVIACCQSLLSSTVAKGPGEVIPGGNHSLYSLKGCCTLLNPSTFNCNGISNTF
Format: cell-based

Q: How did the pKi turn out when `CC(=O)c1c(O)cc(O)cc1O[C@H]1O[C@H](CO)[C@@H](O)[C@H](O)[C@H]1O` was run?
A: 4.51

Q: `CC(=O)c1cc(O)cc(O)c1` was tested. Which pKi did it give?
A: < 4.00

Q: With `O=C(CCc1ccc(O)cc1)c1c(O)cc(O[C@@H]2O[C@H](CO)[C@@H](O)[C@H](O)[C@H]2O)cc1O` as the compound, how does the pKi read?
A: < 4.00

Q: How did the pKi turn out when `O=C(CCc1ccc(O)cc1)c1c(O)cc(O)cc1O[C@@H]1O[C@H](CO)[C@@H](O)[C@H](O)[C@H]1O` [PHLORIZIN] was run?
A: 4.80

Q: How did the pKi turn out when `Oc1ccc(CCCc2c(O)cc(O)cc2O)cc1` was run?
A: 4.52

Q: With `O=C(CCc1ccccc1)c1ccccc1O[C@@H]1O[C@H](CO)[C@@H](O)[C@H]1O` as the compound, how does the pKi read?
A: < 4.00

Q: `CC(=O)c1c(O)cc(O)cc1O` [2,4,6-TRIHYDROXYACETOPHENONE] was tested. Which pKi did it give?
A: < 4.00

Q: `O=C(CCc1ccc(O)cc1)c1c(O)cc(O)cc1O` [PHLORETIN] was tested. Which pKi did it give?
A: 4.49

Q: How did the pKi turn out when `OC[C@H]1O[C@@H](Oc2cc(O)cc(O)c2CCCc2ccc(O)cc2)[C@H](O)[C@@H](O)[C@@H]1O` was run?
A: 4.91

Q: How did the pKi turn out when `CC(=O)c1c(O)cc(O)cc1O[C@@H]1O[C@H](CO)[C@@H](O)[C@H]1O` was run?
A: 4.91

Q: How did the pKi turn out when `O=C(CCc1ccc(O)cc1)c1c(O)cc(O)cc1O[C@@H]1O[C@H](CO)[C@@H](O)[C@H]1O` was run?
A: 5.54

Q: How did the pKi turn out when `CC(=O)c1ccc(O[C@H]2O[C@H](CO)[C@@H](O)[C@H](O)[C@H]2O)cc1O` was run?
A: < 4.00

Q: With `O=[N+]([O-])c1ccc(CSc2ncnc3c2ncn3[C@@H]2O[C@H](CO)[C@@H](O)[C@H]2O)cc1` [NITROBENZYLMERCAPTOPURINE RIBONUCLEOSIDE] as the compound, how does the pKi read?
A: 4.06

Q: `CC(=O)c1c(O)cccc1O[C@H]1O[C@H](CO)[C@@H](O)[C@H](O)[C@H]1O` was tested. Which pKi did it give?
A: 4.27

Q: How did the pKi turn out when `CC(=O)c1c(O)cccc1O[C@@H]1O[C@H](CO)[C@@H](O)[C@H]1O` was run?
A: 4.38

Q: How did the pKi turn out when `CC(=O)c1c(O)cccc1O` was run?
A: < 4.00

Q: With `CC(=O)c1cc(O)cc(O[C@H]2O[C@H](CO)[C@@H](O)[C@H](O)[C@H]2O)c1` as the compound, how does the pKi read?
A: < 4.00

Q: With `CC(=O)c1ccc(O)cc1O` as the compound, how does the pKi read?
A: < 4.00

Q: `CC(=O)c1cc(O)cc(O[C@@H]2O[C@H](CO)[C@@H](O)[C@H]2O)c1` was tested. Which pKi did it give?
A: < 4.00
